Results on 22 compounds are retold here after patent US20180002319A1, “MACROCYCLIC PICOLINAMIDE COMPOUNDS WITH FUNGICIDAL ACTIVITY” (DOW AGROSCIENCES LLC, priority 2014, published 2018).

Assay [1] deals with Zymoseptoria tritici. The assay is described as follows: Leaf Blotch of Wheat (SEPTTR) fungicidal activity. It counts as in vivo. Conditions: wheat leaf blotch; for pest or weed control at 100 ppm: High Volume application; for pest or weed control at 121.5 g/ha: Low Volume application, 121.5 g/H. As to the method:
Example A: Evaluation of Fungicidal Activity: Leaf Blotch of Wheat (Zymoseptoria tritici; Bayer Code […]) Technical grades of materials were dissolved in acetone, which were then mixed with nine volumes of H2O containing 110 ppm Triton X-100. The fungicide solutions were applied onto wheat seedlings using an automated booth sprayer to run-off. All sprayed plants were allowed to air dry prior to further handling. All fungicides were evaluated using the aforementioned method for their activity vs. all target diseases, unless stated otherwise. Wheat leaf blotch and brown rust activity were also evaluated using track spray applications, in which case the fungicides were formulated as EC formulations, containing 0.1% Trycol 5941 in the spray solutions. Wheat plants (variety Yuma) were grown from seed in a greenhouse in 50% mineral soil/50% soil-less Metro mix until the first leaf was fully emerged, with 7-10 seedlings per pot. These plants were inoculated with an aqueous spore suspension of Zymoseptoria tritici either prior to or after fungicide treatments. After inoculation the plants were kept in 100% relative humidity (one day in a dark dew chamber followed by two to three days in a lighted dew chamber at 20° C.) to permit spores to germinate and infect the leaf. The plants were then transferred to a greenhouse set at 20° C. for disease to develop. When disease symptoms were fully expressed on the 1st leaves of untreated plants, infection levels were assessed on a scale of 0 to 100 percent disease severity. Percent disease control was calculated using the ratio of disease severity on treated plants relative to untreated plants.

The test system of assay [2] is Puccinia triticina. Description: Wheat Brown Rust (PUCCRT) fungicidal activity. Format: in vivo. Conditions: for pest or weed control at 100 ppm: High Volume application; for pest or weed control at 121.5 g/ha: Low Volume application, 121.5 g/H. As to the method: Technical grades of materials were dissolved in acetone, which were then mixed with nine volumes of H2O containing 110 ppm Triton X-100. The fungicide solutions were applied onto wheat seedlings using an automated booth sprayer to run-off. All sprayed plants were allowed to air dry prior to further handling. All fungicides were evaluated using the aforementioned method for their activity vs. all target diseases, unless stated otherwise. Wheat leaf blotch and brown rust activity were also evaluated using track spray applications, in which case the fungicides were formulated as EC formulations, containing 0.1% Trycol 5941 in the spray solutions. Wheat plants (variety Yuma) were grown from seed in a greenhouse in 50% mineral soil/50% soil-less Metro mix until the first leaf was fully emerged, with 7-10 seedlings per pot. These plants were inoculated with an aqueous spore suspension of Zymoseptoria tritici either prior to or after fungicide treatments. After inoculation the plants were kept in 100% relative humidity (one day in a dark dew chamber followed by two to three days in a lighted dew chamber at 20° C.) to permit spores to germinate and infect the leaf. The plants were then transferred to a greenhouse set at 20° C. for disease to develop. When disease symptoms were fully expressed on the 1st leaves of untreated plants, infection levels were assessed on a scale of 0 to 100 percent disease severity. Percent disease control was calculated using the ratio of disease severity on treated plants relative to untreated plants. Example B: Evaluation of Fungicidal Activity: Wheat Brown Rust (Puccinia triticina; Bayer Code PUCCRT) Wheat plants (variety Yuma) were grown from seed in a greenhouse in 50% mineral soil/50% soil-less Metro mix until the first leaf was fully emerged, with 7-10 seedlings per pot. These plants were inoculated with an aqueous spore suspension of Puccinia triticina either prior to or after fungicide treatments. After inoculation the plants were kept in a dark dew room at 22° C. with 100% relative humidity overnight to permit spores to germinate and infect the leaf. The plants were then transferred to a greenhouse set at 24° C. for disease to develop. Fungicide formulation, application and disease assessment followed the procedures as described in the Example A.

The mark [3] stands for this setting: 24 h, 1 day protectant, read-out: SEPTTR disease control, 1DP (1 Day Protectant).
[4] abbreviates: 72 h, 3 day curative, read-out: SEPTTR disease control, 3DC (3 Day Curative).
Setting [5] is: 24 h, 1 day protectant, read-out: PUCCRT disease control, 1DP (1 Day Protectant).
The mark [6] stands for this setting: 72 h, 3 day curative, read-out: PUCCRT disease control, 3DC (3 Day Curative).

Structures are written as SMILES. Read-outs that look alike come from different tables or passages of the source.

With `CCCO[C@H]1COCC[C@H](NC(=O)c2nccc(OC)c2O)C(=O)O[C@@H](C)[C@@H]1Oc1ccccc1` [Compound 114], the pest or weed control at 100 ppm in assay [1] (setting [3]), in assay [1] (setting [4]), in assay [2] (setting [5]) and in assay [2] (setting [6]) was > 80% throughout.
On to `CCCOC(=O)O[C@H]1CCCC[C@H](NC(=O)c2nccc(OC)c2O)C(=O)O[C@@H](C)[C@@H]1OCC(C)C` [Compound 111], for which the pest or weed control at 100 ppm in assay [1] (setting [3]) is < 80%; in assay [1] (setting [4]), > 80%; in assay [2] (setting [5]) it was < 80%; in assay [2] (setting [6]), < 80%.
In the case of `COc1ccnc(C(=O)N[C@H]2CCCC[C@H](Cc3ccccc3)[C@@H](OCC(C)C)[C@H](C)OC2=O)c1OCOC(C)=O` [Compound 24], the pest or weed control at 121.5 g/ha in assay [1] (setting [3]) was > 80%; in assay [1] (setting [4]) it was > 80%; in assay [2] (setting [5]) it was > 80%; in assay [2] (setting [6]), < 80%.
`COc1ccnc(C(=O)N[C@H]2CCCC[C@H](OCc3ccccc3)[C@@H](OCc3ccccc3)[C@H](C)OC2=O)c1O` [Compound 88]: the pest or weed control at 100 ppm is > 80% in assay [1] (setting [3]), < 80% in assay [1] (setting [4]) and > 80% in assay [2] (setting [5]).
As for `COc1ccc(CO[C@H]2[C@H](C)OC(=O)[C@@H](NC(=O)c3nccc(OC)c3OCOC(C)=O)CCOC[C@@H]2OCc2ccc(OC)cc2)cc1` [Compound 32], the pest or weed control at 121.5 g/ha in assay [1] (setting [4]) and in assay [2] (setting [6]) was < 80% throughout.
In the case of `COc1ccnc(C(=O)N[C@H]2CCOC[C@H](OC)[C@@H](Oc3ccccc3)[C@H](C)OC2=O)c1OC(C)=O` [Compound 48], the pest or weed control at 121.5 g/ha in assay [1] (setting [3]), in assay [1] (setting [4]), in assay [2] (setting [5]) and in assay [2] (setting [6]) was > 80% throughout.
Regarding `COc1ccnc(C(=O)N[C@H]2CCCC[C@H](Cc3ccccc3)[C@@H](OC(=O)C(C)C)[C@H](C)OC2=O)c1OCOC(C)=O` [Compound 60], the pest or weed control at 121.5 g/ha in assay [1] (setting [3]), in assay [1] (setting [4]), in assay [2] (setting [5]) and in assay [2] (setting [6]) was > 80% throughout.
For `COc1ccnc(C(=O)N[C@H]2CCCC[C@H](CC3CCCC3)[C@@H](OC)[C@H](C)OC2=O)c1O` [Compound 125], the pest or weed control at 100 ppm in assay [1] (setting [3]) is < 80%; in assay [1] (setting [4]), < 80%; in assay [2] (setting [5]), > 80%; in assay [2] (setting [6]), < 80%.
Regarding `COc1ccc(C[C@H]2CCOC[C@H](NC(=O)c3nccc(OC)c3OC(=O)C(C)C)C(=O)O[C@@H](C)[C@@H]2Oc2ccccc2)cc1` [Compound 68], the pest or weed control at 121.5 g/ha in assay [1] (setting [3]) is < 80%; in assay [1] (setting [4]) it was < 80%; in assay [2] (setting [5]), > 80%.
Consider `COc1ccnc(C(=O)N[C@H]2CCCC[C@H](OC)[C@@H](OC3CCCC3)[C@H](C)OC2=O)c1O` [Compound 107], for which the pest or weed control at 100 ppm in assay [1] (setting [3]) was > 80%; in assay [1] (setting [4]), < 80%; in assay [2] (setting [5]), > 80%; in assay [2] (setting [6]), > 80%.
For the compound `CCCO[C@@H]1[C@@H](CC2CCCC2)CCCC[C@H](NC(=O)c2nccc(OC)c2O)C(=O)O[C@H]1C` [Compound 124], the pest or weed control at 100 ppm in assay [1] (setting [3]), in assay [1] (setting [4]), in assay [2] (setting [5]) and in assay [2] (setting [6]) was < 80% each time.
For the compound `COc1ccnc(C(=O)N[C@H]2CCCC[C@H](OC)[C@@H](Oc3ccccc3)[C@H](C)OC2=O)c1O` [Compound 91], the pest or weed control at 100 ppm in assay [1] (setting [3]), in assay [1] (setting [4]), in assay [2] (setting [5]) and in assay [2] (setting [6]) was > 80% each time.
For the compound `CCCO[C@H]1CCCC[C@H](NC(=O)c2nccc(OC)c2OCOC(C)=O)C(=O)O[C@@H](C)[C@@H]1Oc1ccccc1` [Compound 23], the pest or weed control at 121.5 g/ha in assay [1] (setting [3]), in assay [1] (setting [4]), in assay [2] (setting [5]) and in assay [2] (setting [6]) was > 80% each time.
In the case of `COc1ccnc(C(=O)N[C@H]2COCC[C@H](Cc3ccc(F)cc3)[C@@H](OC(=O)C(C)C)[C@H](C)OC2=O)c1O` [Compound 134], the pest or weed control at 100 ppm in assay [1] (setting [3]) was > 80%; in assay [1] (setting [4]), > 80%; in assay [2] (setting [5]), > 80%; in assay [2] (setting [6]), < 80%.
As to `CCCCO[C@H]1CCOC[C@H](NC(=O)c2nccc(OC)c2O)C(=O)O[C@@H](C)[C@@H]1OCC(C)C` [Compound 87], the pest or weed control at 100 ppm is > 80% in assay [1] (setting [3]), < 80% in assay [1] (setting [4]), > 80% in assay [2] (setting [5]) and > 80% in assay [2] (setting [6]).
As to `COc1ccnc(C(=O)N[C@H]2CCCC[C@H](Cc3ccccc3)[C@@H](Oc3ccccc3)[C@H](C)OC2=O)c1OC(C)=O` [Compound 64], the pest or weed control at 121.5 g/ha in assay [1] (setting [3]) was > 80%; in assay [1] (setting [4]) it was > 80%; in assay [2] (setting [5]) it was > 80%; in assay [2] (setting [6]) it was < 80%.
In the case of `COc1ccnc(C(=O)N[C@H]2CCCC[C@H](CC3CCCC3)[C@@H](Oc3ccccc3)[C@H](C)OC2=O)c1O` [Compound 121], the results for the pest or weed control at 100 ppm in assay [1] (setting [3]), in assay [1] (setting [4]) and in assay [2] (setting [5]) were < 80%, > 80% and < 80%, respectively.
Regarding `COc1ccnc(C(=O)N[C@H]2CCCC[C@H](Oc3ccccc3)[C@@H](OCC(C)C)[C@H](C)OC2=O)c1OCOC(C)=O` [Compound 10], the pest or weed control at 100 ppm in assay [1] (setting [3]), in assay [1] (setting [4]), in assay [2] (setting [5]) and in assay [2] (setting [6]) was > 80% in each case.
On to `COc1ccnc(C(=O)N[C@H]2COCC[C@H](Cc3ccc(F)cc3)[C@@H](Oc3ccccc3)[C@H](C)OC2=O)c1O` [Compound 132], for which the pest or weed control at 100 ppm in assay [1] (setting [3]), in assay [2] (setting [5]) and in assay [2] (setting [6]) was > 80% throughout.
Take `CC[C@H]1CCOC[C@H](NC(=O)c2nccc(OC)c2O)C(=O)O[C@@H](C)[C@@H]1Oc1ccccc1` [Compound 130]: the pest or weed control at 100 ppm in assay [1] (setting [3]) is < 80%; in assay [1] (setting [4]), > 80%; in assay [2] (setting [5]), > 80%; in assay [2] (setting [6]), > 80%.
`COc1ccnc(C(=O)N[C@H]2CCCC[C@H](OC)[C@@H](OCC(C)C)[C@H](C)OC2=O)c1O` [Compound 92]: the pest or weed control at 100 ppm in assay [1] (setting [3]), in assay [1] (setting [4]), in assay [2] (setting [5]) and in assay [2] (setting [6]) was > 80% throughout.
As for `COc1ccnc(C(=O)N[C@H]2CCOC[C@H](Oc3ccccc3)[C@@H](Oc3ccccc3)[C@H](C)OC2=O)c1O` [Compound 110], the pest or weed control at 100 ppm in assay [1] (setting [3]), in assay [2] (setting [5]) and in assay [2] (setting [6]) was > 80% in each case.
